ChEMBL document CHEMBL5346899, “PKM2/PDK1 dual-targeted shikonin derivatives restore the sensitivity of EGFR-mutated NSCLC cells to gefitinib by remodeling glucose metabolism” (Eur J Med Chem, 2023)
The source made the active and inactive calls. No cut-off for these calls is given here.

Key:
NCI-H1299 [1] = assay: Induction of apoptosis in human NCI-H1299 cells assessed as early apoptotic cells at 500 micromol/L incubated for 24 hrs by Annexin V-FITC/PI staining based analysis (reference value: 0.772%); assay type: functional; conditions: dose 500 µmol/L, at 500 µM
NCI-H1299 [2] = assay: Induction of apoptosis in human NCI-H1299 cells assessed as dead cells at 500 micromol/L incubated for 24 hrs in presence of AZD7545 by Annexin V-FITC/PI staining based analysis (reference value: 0.021%); assay type: functional; conditions: dose 500 µmol/L, at 500 µM
NCI-H1299 [3] = assay: Inhibition of glycolysis in human NCI-H1299 cells assessed as reduction in glucose consumption incubated for 24 hrs in presence of AZD7545 by colorimetric assay; assay type: functional, cell-based
NCI-H1299 [4] = assay: Induction of apoptosis in human NCI-H1299 cells assessed as dead cells at 500 micromol/L incubated for 24 hrs by Annexin V-FITC/PI staining based analysis (reference value: 0.021%); assay type: functional; conditions: dose 500 µmol/L, at 500 µM
NCI-H1299 [5] = assay: Synergistic induction of oxidative phosphorylation in human NCI-H1299 cells assessed as increase in ATP production in presence of AZD7545 by luminescence based assay; assay type: functional, cell-based
NCI-H1299 [6] = assay: Induction of apoptosis in human NCI-H1299 cells assessed as late apoptotic cells at 500 micromol/L incubated for 24 hrs in presence of AZD7545 by Annexin V-FITC/PI staining based analysis (reference value: 2.63%); assay type: functional; conditions: dose 500 µmol/L, at 500 µM
NCI-H1299 [7] = assay: Synergistic inhibition of NADPH production in human NCI-H1299 cells incubated for 2 hrs in presence of AZD7545 by NADP+/NADPH assay; assay type: functional, cell-based
NCI-H1299 [8] = assay: Induction of apoptosis in human NCI-H1299 cells assessed as live cells at 500 micromol/L incubated for 24 hrs by Annexin V-FITC/PI staining based analysis (reference value: 96.6%); assay type: functional; conditions: dose 500 µmol/L, at 500 µM
NCI-H1299 [9] = assay: Antitumor activity against human NCI-H1299 cells xenografted in mouse assessed as pathological damage to tumor tissue administered in presence of AZD7545; assay type: functional
NCI-H1299 [10] = assay: Induction of apoptosis in human NCI-H1299 cells assessed as live cells at 500 micromol/L incubated for 24 hrs in presence of AZD7545 by Annexin V-FITC/PI staining based analysis (reference value: 96.6%); assay type: functional; conditions: dose 500 µmol/L, at 500 µM
NCI-H1299 [11] = assay: Induction of apoptosis in human NCI-H1299 cells assessed as early apoptotic cells at 500 micromol/L incubated for 24 hrs in presence of AZD7545 by Annexin V-FITC/PI staining based analysis (reference value: 0.772%); assay type: functional; conditions: dose 500 µmol/L, at 500 µM
NCI-H1299 [12] = assay: Synergistic antiproliferative activity against human NCI-H1299 cells assessed as cell growth inhibition at 500 micromol/L incubated for 24 hrs in presence of AZD7545 by CCK-8 analysis; assay type: functional, cell-based; conditions: dose 500.0 µmol/L
NCI-H1299 [13] = assay: Induction of apoptosis in human NCI-H1299 cells assessed as late apoptotic cells at 500 micromol/L incubated for 24 hrs by Annexin V-FITC/PI staining based analysis (reference value: 2.63%); assay type: functional; conditions: dose 500 µmol/L, at 500 µM
NCI-H1299 [14] = assay: Inhibition of glycolysis in human NCI-H1299 cells assessed as reduction in lactate production incubated for 1 hrs in presence of AZD7545 by colorimetric assay; assay type: functional, cell-based

SMILES: Cn1c2cc([S+](C)[O-])sc2c2cnn(Cc3cccc(N)c3)c(=O)c21 (centres undefined)
- Activity (NCI-H1299 [1]): 0.923%
- Activity (NCI-H1299 [2]): 0%
- inhibition (NCI-H1299 [3]): Active
- Activity (NCI-H1299 [4]): 0%
- Activity (NCI-H1299 [5]): Active
- Activity (NCI-H1299 [6]): 71.7%
- inhibition (NCI-H1299 [7]): Active
- Activity (NCI-H1299 [8]): 97%
- Activity (NCI-H1299 [9]): Active
- Activity (NCI-H1299 [10]): 20.6%
- Activity (NCI-H1299 [11]): 7.63%
- Activity (NCI-H1299 [12]): Active
- Activity (NCI-H1299 [13]): 2.11%
- inhibition (NCI-H1299 [14]): Active
